Data published in patent US20090062369A1, “USE OF SECRETORY PHOSPHOLIPASE A2 (SPLA2) INHIBITORS TO DECREASE SPLA2 LEVELS” (priority 2007, published 2009).

Test system: serum sPLA2
Test: Effect of twice-a-day oral A-002 on serum sPLA2 levels in subjects with stable coronary artery disease (Example 6)
Assay type: in vivo, human
Protocol: The protocol for preparing standard curve, test, and quality control samples for use in the assay disclosed herein is set forth in Example 5. Samples are prepared according to this protocol, then loaded in duplicate onto a plate (Cayman catalog no. 485002 or equivalent) that has been pre-coated with a monoclonal sPLA2 antibody (“capture antibody”) that specifically binds sPLA2. In certain embodiments, the capture antibody may interact with a specific form of sPLA2, such as for example sPLA2 type IIA.
sPLA2 acetylcholinesterase:Fab′ conjugate (AChE:Fab′) (“conjugate”) (Cayman catalog no. 485000 or equivalent) is reconstituted in EIA buffer (Cayman catalog no. 400060 or equivalent). Cayman EIA buffer is 1M phosphate, pH 7.0, 1% BSA, 4M NaCl, 10 mM EDTA, and 0.1% sodium azide. Reconstituted conjugate is added to each well of the plate. The conjugate binds a different sPLA2 epitope than the capture antibody, allowing the capture antibody and the conjugate to form a “sandwich” that is immobilized on the plate. Excess reagents are washed away, and the plate is covered and incubated overnight at 2-8° C.
Prior to development, the wells are washed five to six times with wash buffer (Cayman catalog no. 400062 or equivalent). To develop the plate, Ellman's Reagent (Cayman catalog no. 400050 or equivalent) is reconstituted in water and added to each well according to manufacturer instructions. The reconstituted Ellman's Reagent must be used the same day it is prepared because it is unstable. Ellman's Reagent contains an AChE substrate. Specifically, Ellman's Reagent contains acetylthiocholine and 5,5′-dithio-bis-(2-nitrobenzoic acid). Hydrolysis of acetylthiocholine by acetylcholinesterase produces thiocholine, which reacts with 5,5′-dithio-bis-(2-nitrobenzoic acid) to produce 5-thio-2-nitrobenzoic acid. 5-thio-2-nitrobenzoic acid has a strong absorbance at 412 nm. The intensity of absorbance at this wavelength is directly proportional to the concentration of bound conjugate, which is in turn is directly proportional to the concentration of sPLA2 present (Absorbance a [AChE:Fab′ conjugate] α [sPLA2]). During the development step, the plate is shaken, preferably in the dark. In certain embodiments the development time for the assay is 0.5 to 3 hours, preferably 1 to 1.5 hours. At the end of the development period, the high sPLA2 standards should have greater yellow color development than the zero standards. Absorbance of each well is measured at 400-420 nm using a micro-well plate reader. In certain embodiments, absorbance is measured at about 405 nm.
Absorbance readings for duplicate wells are averaged, and the relative standard deviation and % CV are calculated. Standard curve data are used to generate a four parameter curve, and quality control and test samples are measured against the appropriate standard curve (i.e., the standard curve with the same serum content). In order for a test to be considered valid, variation between duplicate wells should be no more than about 25%, and negative controls (blanks) for each standard curve should have a mean absorbance of less than about 0.3.
The method disclosed herein for measuring sPLA2 levels in serum was utilized to determine the effect of administering certain sPLA2 inhibitors on sPLA2 levels in 84 human subjects. The subjects included 24 subjects with diabetes, 32 subjects with metabolic syndrome, and 75 subjects receiving statin treatment. Subjects were administered the sPLA2 inhibitor A-002, a prodrug form of A-001, twice a day at varying dosages from 50 to 500 mg. The structures of A-002and A-001 are set forth below. At two weeks and four weeks after the first administration, sPLA2 levels were measured and compared to pre-administration baseline levels.
84 subjects with stable coronary artery disease were randomized to receive placebo or A-002 via oral administration twice a day over a four week administration period. […]

[1] = 500 mg, non-diabetes subgroup of ITT population
[2] = 500 mg, statin subgroup of ITT population
[3] = A-002 (50 mg), ITT subjects exhibiting at least 3 out of 5 metabolic syndrome criteria
[4] = A-002 (50 mg), non-statin subgroup of ITT population
[5] = A-002 (100 mg), ITT subjects exhibiting at least 3 out of 5 metabolic syndrome criteria
[6] = A-002 (100 mg), non-statin subgroup of ITT population
[7] = A-002 (250 mg), ITT subjects exhibiting at least 3 out of 5 metabolic syndrome criteria
[8] = A-002 (250 mg), non-statin subgroup of ITT population
[9] = A-002 (500 mg), ITT subjects exhibiting at least 3 out of 5 metabolic syndrome criteria

CCc1c(C(=O)C(N)=O)c2c(OCC(=O)OC)cccc2n1Cc1ccccc1 [A-002, [[3-(2-Amino-1,2-dioxoethyl)-2-ethyl-1-(phenylmethyl)-1H-indol-4-yl]oxy]acetic acid methyl ester]
sPLA2 level, Week 2, Range [1]: 0.05 to 0.50 ng/mL | sPLA2 level, Week 4, Mean [1]: 0.13 ng/mL | sPLA2 level, Week 4, Median [1]: 0.05 ng/mL | sPLA2 level, Week 4, Range [1]: 0.05 to 0.40 ng/mL | sPLA2 Change from baseline at week 2, Mean [2]: -2.93 ng/mL | sPLA2 Change from baseline at week 2, Median [2]: -3.30 ng/mL | sPLA2 Change from baseline at week 2, Range [2]: -4.80 to -0.55 ng/mL | sPLA2 Change from baseline at week 4, Mean [2]: -2.99 ng/mL | sPLA2 Change from baseline at week 4, Median [2]: -3.50 ng/mL | sPLA2 Change from baseline at week 4, Range [2]: -4.80 to -0.55 ng/mL | sPLA2 level, Baseline, Mean [2]: 3.05 ng/mL | sPLA2 level, Baseline, Median [2]: 3.00 ng/mL | sPLA2 level, Baseline, Range [2]: 0.60 to 5.40 ng/mL | sPLA2 level, Week 2, Mean [2]: 0.20 ng/mL | sPLA2 level, Week 2, Median [2]: 0.10 ng/mL | sPLA2 level, Week 2, Range [2]: 0.05 to 0.60 ng/mL | sPLA2 level, Week 4, Mean [2]: 0.14 ng/mL | sPLA2 level, Week 4, Median [2]: 0.05 ng/mL | sPLA2 level, Week 4, Range [2]: 0.05 to 0.60 ng/mL | sPLA2 level, Baseline, Mean [3]: 3.47 ng/mL | sPLA2 level, Baseline, Median [3]: 2.70 ng/mL | sPLA2 level, Baseline, Range [3]: 0.80 to 8.80 ng/mL | sPLA2 level, Change from baseline at week 2, Mean [3]: -2.89 ng/mL | sPLA2 level, Change from baseline at week 2, Median [3]: -2.50 ng/mL | sPLA2 level, Change from baseline at week 2, Range [3]: -5.30 to -0.60 ng/mL | sPLA2 level, Change from baseline at week 4, Mean [3]: -2.76 ng/mL | sPLA2 level, Change from baseline at week 4, Median [3]: -2.15 ng/mL | sPLA2 level, Change from baseline at week 4, Range [3]: -6.40 to -0.60 ng/mL | sPLA2 level, Week 2, Mean [3]: 0.96 ng/mL | sPLA2 level, Week 2, Median [3]: 0.30 ng/mL | sPLA2 level, Week 2, Range [3]: 0.20 to 4.00 ng/mL | sPLA2 level, Week 4, Mean [3]: 0.81 ng/mL | sPLA2 level, Week 4, Median [3]: 0.65 ng/mL | sPLA2 level, Week 4, Range [3]: 0.10 to 2.40 ng/mL | sPLA2 level, Baseline, Mean [4]: 1.80 ng/mL | sPLA2 level, Baseline, Median [4]: 1.80 ng/mL | sPLA2 level, Baseline, Range [4]: 1.80 to 1.80 ng/ml | sPLA2 level, Baseline, Mean [5]: 2.97 ng/mL | sPLA2 level, Baseline, Median [5]: 2.20 ng/mL | sPLA2 level, Baseline, Range [5]: 0.05 to 6.00 ng/mL | sPLA2 level, Change from baseline at week 2, Mean [5]: -1.01 ng/mL | sPLA2 level, Change from baseline at week 2, Median [5]: -1.80 ng/mL | sPLA2 level, Change from baseline at week 2, Range [5]: −3.30 to +2.85 ng/ml | sPLA2 level, Change from baseline at week 4, Mean [5]: -2.78 ng/mL | sPLA2 level, Change from baseline at week 4, Median [5]: -2.70 ng/mL | sPLA2 level, Change from baseline at week 4, Range [5]: -5.70 to 0.00 ng/mL | sPLA2 level, Week 2, Mean [5]: 1.20 ng/mL | sPLA2 level, Week 2, Median [5]: 0.80 ng/mL | sPLA2 level, Week 2, Range [5]: 0.30 to 2.90 ng/mL | sPLA2 level, Week 4, Mean [5]: 0.41 ng/mL | sPLA2 level, Week 4, Median [5]: 0.30 ng/mL | sPLA2 level, Week 4, Range [5]: 0.05 to 1.00 ng/mL | sPLA2 level, Baseline, Mean [6]: 3.85 ng/mL | sPLA2 level, Baseline, Median [6]: 3.85 ng/mL | sPLA2 level, Baseline, Range [6]: 2.80 to 4.90 ng/mL | sPLA2 level, Change from baseline at week 2, Mean [6]: -1.90 ng/mL | sPLA2 level, Change from baseline at week 2, Median [6]: -1.90 ng/mL | sPLA2 level, Change from baseline at week 2, Range [6]: −1.90 to −1.90 ng/ml | sPLA2 level, Change from baseline at week 4, Mean [6]: -3.05 ng/mL | sPLA2 level, Change from baseline at week 4, Median [6]: -3.05 ng/mL | sPLA2 level, Change from baseline at week 4, Range [6]: -4.40 to -1.70 ng/mL | sPLA2 level, Week 2, Mean [6]: 0.90 ng/mL | sPLA2 level, Week 2, Median [6]: 0.90 ng/mL | sPLA2 level, Week 2, Range [6]: 0.90 to 0.90 ng/ml | sPLA2 level, Week 4, Mean [6]: 0.80 ng/mL | sPLA2 level, Week 4, Median [6]: 0.80 ng/mL | sPLA2 level, Week 4, Range [6]: 0.50 to 1.10 ng/mL | sPLA2 level, Baseline, Mean [7]: 2.90 ng/mL | sPLA2 level, Baseline, Median [7]: 2.20 ng/mL | sPLA2 level, Baseline, Range [7]: 1.80 to 4.70 ng/mL | sPLA2 level, Change from baseline at week 2, Mean [7]: -1.65 ng/mL | sPLA2 level, Change from baseline at week 2, Median [7]: -1.65 ng/mL | sPLA2 level, Change from baseline at week 2, Range [7]: -1.90 to -1.40 ng/mL | sPLA2 level, Change from baseline at week 4, Mean [7]: -1.75 ng/mL | sPLA2 level, Change from baseline at week 4, Median [7]: -1.75 ng/mL | sPLA2 level, Change from baseline at week 4, Range [7]: -2.10 to -1.40 ng/mL | sPLA2 level, Week 2, Mean [7]: 0.33 ng/mL | sPLA2 level, Week 2, Median [7]: 0.30 ng/mL | sPLA2 level, Week 2, Range [7]: 0.30 to 0.40 ng/mL | sPLA2 level, Week 4, Mean [7]: 0.27 ng/mL | sPLA2 level, Week 4, Median [7]: 0.30 ng/mL | sPLA2 level, Week 4, Range [7]: 0.10 to 0.40 ng/mL | sPLA2 level, Baseline, Mean [8]: 3.40 ng/mL | sPLA2 level, Baseline, Median [8]: 3.40 ng/mL | sPLA2 level, Baseline, Range [8]: 3.40 to 3.40 ng/ml | sPLA2 level, Change from baseline at week 2, Mean [8]: -2.10 ng/mL | sPLA2 level, Change from baseline at week 2, Median [8]: -2.10 ng/mL | sPLA2 level, Change from baseline at week 2, Range [8]: −2.10 to −2.10 ng/ml | sPLA2 level, Change from baseline at week 4, Mean [8]: -2.20 ng/mL | sPLA2 level, Change from baseline at week 4, Median [8]: -2.20 ng/mL | sPLA2 level, Change from baseline at week 4, Range [8]: −2.20 to −2.20 ng/ml | sPLA2 level, Week 2, Mean [8]: 1.30 ng/mL | sPLA2 level, Week 2, Median [8]: 1.30 ng/mL | sPLA2 level, Week 2, Range [8]: 1.30 to 1.30 ng/ml | sPLA2 level, Week 4, Mean [8]: 1.20 ng/mL | sPLA2 level, Week 4, Median [8]: 1.20 ng/mL | sPLA2 level, Week 4, Range [8]: 1.20 to 1.20 ng/ml | sPLA2 level, Baseline, Mean [9]: 3.05 ng/mL | sPLA2 level, Baseline, Median [9]: 3.40 ng/mL | sPLA2 level, Baseline, Range [9]: 1.20 to 4.40 ng/mL | sPLA2 level, Change from baseline at week 2, Mean [9]: -2.94 ng/mL | sPLA2 level, Change from baseline at week 2, Median [9]: -3.50 ng/mL | sPLA2 level, Change from baseline at week 2, Range [9]: -4.00 to -1.15 ng/mL | sPLA2 level, Change from baseline at week 4, Mean [9]: -3.04 ng/mL | sPLA2 level, Change from baseline at week 4, Median [9]: -3.70 ng/mL | sPLA2 level, Change from baseline at week 4, Range [9]: -4.35 to -1.15 ng/mL | sPLA2 level, Week 2, Mean [9]: 0.16 ng/mL | sPLA2 level, Week 2, Median [9]: 0.05 ng/mL | sPLA2 level, Week 2, Range [9]: 0.05 to 0.40 ng/mL | sPLA2 level, Week 4, Mean [9]: 0.06 ng/mL | sPLA2 level, Week 4, Median [9]: 0.05 ng/mL
